Usually pKi stands for −log10 of the Ki, conventionally taken in molar units.

This is an account of results in patent publication US5688807A, “Method for treating 5HT2B receptor related conditions” (Eli Lilly and Company, priority 1995, dated 1997).

Each structure is given as a SMILES string. pKi: −log10 of the molar value. Counter-ions that a name gives are not always drawn.
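For 5-HT2B (Fundus) -log KB in this document: isometric contraction of isolated male Wistar rat stomach fundus strips, serotonin concentration-response curves after antagonist incubation, KB from dose ratio of agonist potency versus control curve.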
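For Kb in this document: isometric contraction of isolated male Wistar rat stomach fundus strips, serotonin concentration-response curves after antagonist incubation, KB from dose ratio of agonist potency versus control curve.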

Chain of 5-HT2B receptor (rat stomach fundus) (P30994 whole entry): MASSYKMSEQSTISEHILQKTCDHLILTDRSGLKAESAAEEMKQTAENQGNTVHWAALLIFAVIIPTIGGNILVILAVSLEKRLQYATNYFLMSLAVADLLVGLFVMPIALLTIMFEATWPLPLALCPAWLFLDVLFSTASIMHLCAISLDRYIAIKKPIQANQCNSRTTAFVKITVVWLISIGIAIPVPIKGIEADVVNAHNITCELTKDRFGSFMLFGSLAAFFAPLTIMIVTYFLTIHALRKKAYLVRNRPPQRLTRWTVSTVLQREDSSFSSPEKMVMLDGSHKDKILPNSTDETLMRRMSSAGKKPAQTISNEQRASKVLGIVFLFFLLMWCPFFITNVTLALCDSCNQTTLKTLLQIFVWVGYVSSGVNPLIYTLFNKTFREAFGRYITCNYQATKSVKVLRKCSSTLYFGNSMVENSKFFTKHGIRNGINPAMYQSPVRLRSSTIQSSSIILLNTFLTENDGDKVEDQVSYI

The target of one experiment is rat 5-HT2B receptor (Rattus norvegicus, UniProt P30994). Put plainly: biochemical. Format: binding. The following applies: Ki Rat 5-HT2B, [3H]Serotonin; 5-HT2B cells; AVG.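 Also: displacement of [3H]5-HT from membranes of suspension cells carrying cloned rat 5-HT2B receptor, incubated 15 min at 37 °C or 2 h at 0 °C, filter-bound radioactivity counted by scintillation.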
Chain of rat 5-HT2B receptor (P30994 whole entry): as above
`CC(C)n1cc2c3c(cccc31)C1CC(C(=O)NCCN3CCN(c4ccccc4)CC3)CN(C)C1C2` (centres unmarked): the pKi was 7.93.

The experiment is the same for the next values; noted with them: Radioligand assay; Table III; read-out: pKi (converted).
`Cc1ccc2[nH]c3c(c2c1)CCNC3C(C)c1cccc2ccccc12` (racemic) [Example 49, (±) 6-methyl-1-(1-naphthalenyl-1-ethyl)-1,2,3,4-tetrahydro-9H-pyrido [3,4-b]indole (Z) 2-butenedioate]: the Ki is 3.98 nM.

Still in this experiment, the particulars now being: [3H]Serotonin; 5-HT2B cells; AVG; read-out: Ki Rat 5-HT2B.
On to `c1ccc2c(N3CCNCC3)cccc2c1`, for which the pKi was 8.35.

In another experiment the target is T1, Human 5-HT2B (Homo sapiens, UniProt P41595).
T1 construct: expressed in transfected cells
T1 sequence (P41595 whole entry): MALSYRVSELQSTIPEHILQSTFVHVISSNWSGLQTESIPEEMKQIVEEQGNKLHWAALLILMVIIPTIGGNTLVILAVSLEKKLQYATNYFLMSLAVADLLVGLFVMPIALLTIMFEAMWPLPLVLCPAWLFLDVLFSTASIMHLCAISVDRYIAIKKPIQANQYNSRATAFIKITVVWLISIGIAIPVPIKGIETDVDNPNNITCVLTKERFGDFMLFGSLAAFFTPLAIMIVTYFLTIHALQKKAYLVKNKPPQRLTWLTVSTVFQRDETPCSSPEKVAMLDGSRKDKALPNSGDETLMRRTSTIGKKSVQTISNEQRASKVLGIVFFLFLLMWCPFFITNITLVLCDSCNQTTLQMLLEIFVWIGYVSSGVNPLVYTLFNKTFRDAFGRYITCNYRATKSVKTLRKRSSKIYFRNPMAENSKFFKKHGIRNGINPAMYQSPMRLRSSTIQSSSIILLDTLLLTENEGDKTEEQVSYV
Put plainly: [3H]Serotonin radioligand binding, human 5-HT2B.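 Also: competition of tritiated serotonin binding to cell membranes, bound radioactivity on filters counted by liquid scintillation, IC50 from logistic fits converted to Ki with the Cheng-Prusoff equation.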
Conditions: not given
On to `CC(N)Cc1c[nH]c2ccc(O)cc12` (centres unmarked), for which the negative-log Ki (pKi) was 7.92.

On to `c1ccc2c(N3CCNCC3)cccc2c1`, for which the pKi is 8.42.

In turn, `CN1CC(C(=O)NC2CCCC2O)CC2c3cccc4[nH]cc(c34)CC21` (centres unmarked) showed a pKi of 8.10.

The same experiment, now with this note: [3H]Serotonin; 5-HT2B cells; AVG; read-out: Ki Human 5-HT2B.
In the case of `CCCNC1CCc2cccc(C(C)=O)c2C1` (centres unmarked), the negative-log Ki (pKi) was 5.75.

A further experiment deals with Human 5-HT2A (Homo sapiens, UniProt P28223). Put plainly: [125I]DOI radioligand binding, human 5-HT2A.
Chain of Human 5-HT2A (P28223 whole entry): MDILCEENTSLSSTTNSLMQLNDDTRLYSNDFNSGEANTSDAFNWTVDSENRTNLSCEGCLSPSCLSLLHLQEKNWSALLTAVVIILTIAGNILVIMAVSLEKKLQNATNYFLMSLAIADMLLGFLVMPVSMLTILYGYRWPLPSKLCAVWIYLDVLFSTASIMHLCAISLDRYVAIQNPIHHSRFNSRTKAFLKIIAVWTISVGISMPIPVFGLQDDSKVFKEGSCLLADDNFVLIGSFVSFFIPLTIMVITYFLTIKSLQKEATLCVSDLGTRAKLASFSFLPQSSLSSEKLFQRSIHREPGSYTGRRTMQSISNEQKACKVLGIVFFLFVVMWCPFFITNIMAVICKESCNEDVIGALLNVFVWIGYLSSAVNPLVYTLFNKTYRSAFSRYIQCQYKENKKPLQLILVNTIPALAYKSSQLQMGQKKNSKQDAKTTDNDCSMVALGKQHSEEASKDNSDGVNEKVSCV
Conditions: not given
For the compound `COc1ccc(CC2NCCc3c2[nH]c2ccc(C)cc32)cc1OC` (centres unmarked) [drawing 144], the negative-log Ki (pKi) is 7.55.

The same experiment, now with this note: Ki Human 5-HT2A, [125I]DOI; AVG.
`CC(C)n1cc2c3c(cccc31)C1CC(C(=O)NCCN3CCN(c4ccccc4)CC3)CN(C)C1C2` (centres unmarked) showed a pKi of 7.49.

Another experiment has as its target 5-HT2B receptor (rat stomach fundus) (Rattus norvegicus, UniProt P30994).
Test: not given
Conditions: not given
In the case of `COc1ccc(CC2NCCc3c2[nH]c2c(Br)c(C)ccc32)cc1OC` (centres unmarked) [Example 7, 7-methyl-8-bromo-1-[(3,4-dimethoxyphenyl)-methyl]-1,2,3,4-tetrahydro-9H-pyrido[3,4-b]indole hydrochloride], the Kb was 0.955 nM.

The same experiment, now with this note: rat stomach fundus; vs serotonin; ± standard error.
For `COc1ccc(CC2c3[nH]c4ccc(C(C)C)cc4c3CCN2C)cc1OC` (centres unmarked) [Example 45, 2-methyl-6-(1-methylethyl)-1,2,3,4-tetrahydro-1-[(3,4-dimethoxyphenyl)methyl]-9H-pyrido-[3,4b]indole maleate], the “5-HT2B (Fundus) -log KB” value was determined as 8.14 ± 0.32.

The same experiment, now with this note: rat stomach fundus; vs serotonin; ± standard error; read-out: 5-HT2B (Fundus) -log KB (converted).
For the compound `COc1ccc(CC2NCCc3c2[nH]c2cc(C)cc(C)c32)cc1OC` (centres unmarked) [Example 15, 5,7-dimethyl-1,2,3,4-tetrahydro-1-[(3,4-dimethoxyphenyl)methyl]-9H-pyrido[3,4b]indole hydrochloride], the Kb was 0.457 nM.

Turning to `CCC(c1ccc(OC)c(OC)c1)C1NCCc2c1[nH]c1ccc(C)cc21` (racemic) [Example 43, (±) 6-methyl-1-[(3,4-dimethoxyphenyl)-1-propyl]-1,2,3,4-tetrahydro-9H-pyrido[3,4-b]indole (Z)-2-butenedioate], the Kb was 0.363 nM.

As for `Cc1ccc2[nH]c3c(c2c1)CCNC3C(C)c1cccc2ccccc12` (racemic) [Example 49, (±) 6-methyl-1-(1-naphthalenyl-1-ethyl)-1,2,3,4-tetrahydro-9H-pyrido [3,4-b]indole (Z) 2-butenedioate], the Kb is around 0.0389 nM.

With `COc1ccc(CC2NCCc3c2[nH]c2ccc(C)c(F)c32)cc1OC` (centres unmarked) [Example 9, 5-fluoro-6-methyl-1-[(3,4-dimethoxyphenyl)-methyl]-1,2,3,4-tetrahydro-9H-pyrido[3,4-b]indole], the Kb is 0.501 nM.

With `COc1ccc(CC2NCCc3c2[nH]c2ccc(C(C)(C)C)cc32)cc1OC` (centres unmarked) [Example 8, 6-(1,1-dimethylethyl)-1-[(3,4-dimethoxyphenyl)methyl]1,2,3,4-tetrahydro-1-9H-pyrido-[3,4b]indole hydrochloride], the Kb is 3.55 nM.

For the compound `Brc1cccc2c3c([nH]c12)C(Cc1cccc2ccccc12)NCC3` (racemic) [Example 52, (±) 8-bromo-1-(1-naphthalenylmethyl)-1,2,3,4-tetrahydro-9H-pyrido [3,4-b]indole hydrochloride], the Kb was around 0.794 nM.

As for `COc1ccc(CC2NCCc3c2[nH]c2ccc(C4CCCCC4)cc32)cc1OC` (centres unmarked) [Example 11, 6-cyclohexyl-1-[(3,4-dimethoxyphenyl)-methyl]-1,2,3,4-tetrahydro-9H-pyrido[3,4-b]indole hydrochloride], the Kb was above 30.2 nM.

In the case of `COc1cc(CC2NCCc3c2[nH]c2ccc(C)cc32)cc([N+](=O)[O-])c1OC` (centres unmarked) [Example 28, 6-methyl-1-[(3,4-dimethoxy-5-nitrophenyl)-methyl]-1,2,3,4-tetrahydro-9H-pyrido[3,4-b]indole hydrochloride], the Kb is 2.82 nM.

For the compound `Brc1ccc2[nH]c3c(c2c1)CCNC3Cc1cccc2ccccc12` (racemic) [Example 55, (±) 6-bromo-1-(1-naphthalenylmethyl)-1,2,3,4-tetrahydro-9H-pyrido [3,4-b]indole (Z)-2-butenedioate], the Kb was 1.12 nM.

As to `COc1ccc(CC2NCCc3c2[nH]c2c(C)cc(C)cc32)cc1OC` (centres unmarked) [Example 14, 6,8-dimethyl-1,2,3,4-tetrahydro-1-[(3,4-dimethoxyphenyl)methyl]-9H-pyrido[3,4b]indole hydrochloride], the Kb was 0.245 nM.

Regarding `Cc1ccc2[nH]c3c(c2c1)CCN[C@H]3Cc1cccc2ccccc12` [Example 64, (-)-(S)-6-methyl-1,2,3,4-tetrahydro-1-(1-naphthalenylmethyl)-9H-pyrido [3,4-b] indole hydrochloride], the Kb was 0.186 nM.

Regarding `COc1ccc(CC2NCCc3c2[nH]c2c(F)cc(F)cc32)cc1OC` (centres unmarked) [Example 6, 6,8-difluoro-1-[(3,4-dimethoxyphenyl)-methyl]-1,2,3,4-tetrahydro-9H-pyrido[3,4-b]indole], the Kb is 0.251 nM.

As for `Cc1ccc2[nH]c3c(c2c1)CCN(C)C3Cc1cccc2ccccc12` (racemic) [Example 58, (+/-) 2,6-dimethyl-1-(1-naphthalenylmethyl)-1,2,3,4-tetrahydro-9H-pyrido [3,4-b] indole hydrochloride], the Kb is above 30.2 nM.

Regarding `COc1ccc(CC2NCCc3c2[nH]c2c3ccc3ccccc32)cc1OC` (centres unmarked) [Example 10, 7,8,9,10-tetrahydro-10-[(3,4-dimethoxyphenyl)methyl]-11H-benzo[g]pyrido[3,4-b]indole], the Kb was 0.603 nM.

In the case of `CC(C)c1ccc2[nH]c3c(c2c1)CCNC3C(C)c1cccc2ccccc12` (racemic) [Example 50, hydrochloride], the Kb is 3.98 nM.

Regarding `COc1ccc(CC2NCCc3c2[nH]c2c(C)ccc(C)c32)cc1OC` (centres unmarked) [Example 12, 5,8-dimethyl-1,2,3,4-tetrahydro-1-[(3,4-dimethoxyphenyl)methyl]-9H-pyrido[3,4b]indole hydrochloride], the Kb was 0.513 nM.

As for `Cc1ccc2c3c([nH]c2c1Br)C(Cc1cccc2ccccc12)NCC3` (racemic) [Example 56, (±) 7-methyl-8-bromo-1-(1-naphthalenylmethyl)-1,2,3,4-tetrahydro-9H-pyrido [3,4-b]indole hydrochloride], the Kb is around 29.5 nM.

For `c1ccc2c(CC3NCCc4c3[nH]c3ccc(C5CCCCC5)cc43)cccc2c1` (racemic) [Example 57, (+/-) 6-cyclohexyl-1-(1-naphthalenylmethyl)-1,2,3,4-tetrahydro-9H-pyrido [3,4-b] indole hydrochloride], the Kb was above 10 nM.

Turning to `COc1cc(CC2NCCc3c2[nH]c2ccc(C)cc32)cc(I)c1OC` (centres unmarked) [Example 29, 6-methyl-1-[(3-iodo-4,5-dimethoxy-phenyl)-methyl]-1,2,3,4-tetrahydro-9H-pyrido[3,4-b]indole], the Kb is 7.59 nM.

As to `COc1ccc(CC2NCCc3c2[nH]c2ccc(C(C)C)cc32)cc1OC` (centres unmarked) [Example 13, 6-(1-methylethyl)-1,2,3,4-tetrahydro-1-[(3,4-dimethoxyphenyl)methyl]-9H-pyrido[3,4b]indole], the Kb was 3.16 nM.

In the case of `CC(C)(C)c1ccc2[nH]c3c(c2c1)CCNC3Cc1cccc2ccccc12` (racemic) [Example 61, (+/-) 6-(1,1-dimethylethyl)-1,2,3,4-tetrahydro-1-(1-naphthalenylmethyl)-9H-pyrido [3,4b] indole (Z)-2-butenedioate], the Kb is 3.63 nM.

`COc1c(O)ccc(CC2NCCc3c2[nH]c2ccc(C)cc32)c1Cl` (centres unmarked) [Example 37, 6-methyl-1-[(2-chloro-3-methoxy-4-hydroxyphenyl)methyl]-1,2,3,4-tetrahydro-9H-pyrido[3,4-b]-indole hydrochloride]: the Kb is 0.646 nM.

In the case of `COc1ccc(CC2NCCc3c2[nH]c2c(Br)cc(C)cc32)cc1OC` (centres unmarked) [Example 4, 6-methyl-8-bromo-1-[(3,4-dimethoxyphenyl)-methyl]-1,2,3,4-tetrahydro-9H-pyrido[3,4-b]indole hydrochloride], the Kb was 1.2 nM.

For the compound `CCc1ccc2[nH]c3c(c2c1)CCNC3C(C)c1ccc(OC)c(OC)c1` (racemic) [Example 42, (±) 6-ethyl-1-[(3,4-dimethoxyphenyl)-1-ethyl]-1,2,3,4-tetrahydro-9H-pyrido[3,4-b]indole (Z)-2-butenedioate], the Kb is 0.275 nM.

Regarding `COc1cc(CC2NCCc3c2[nH]c2ccc(C)cc32)cc(N)c1OC` (centres unmarked) [Example 30, 6-methyl-1-[(3,4-dimethoxy-5-amino-phenyl)-methyl]-1,2,3,4-tetrahydro-9H-pyrido[3,4-b]indole dihydrochloride], the Kb is 1.29 nM.

Consider `CC(C)c1ccc2[nH]c3c(c2c1)CCNC3Cc1cccc2ccccc12` (racemic) [Example 62, (+/-) 6-(1-methylethyl)-1,2,3,4-tetrahydro-1-(1-naphthalenylmethyl)-9H-pyrido [3,4b] indole (Z)-2-butenedioate], for which the Kb is 2.63 nM.

For the compound `Cc1ccc2[nH]c3c(c2c1)CCNC3CC1CCCCC1` (centres unmarked) [Example 39, 6-methyl-1-(cyclohexylmethyl)-1,2,3,4-tetrahydro-9H-pyrido[3,4-b]indole hydrochloride], the Kb was 4.79 nM.

As for `c1ccc2c(CC3NCCc4c3[nH]c3c4ccc4ccccc43)cccc2c1` (racemic) [Example 60, (+/-) 7,8,9,10-tetrahydro-10-(1-naphthalenylmethyl)-11H-benzo [g] pyrido [3,4-b] indole (Z)-2-butenedioate], the Kb was 1.2 nM.

For `COc1ccc(CC2c3[nH]c4ccc(C)cc4c3CCN2C)c(Cl)c1OC` (centres unmarked) [Example 44, 2,6-dimethyl-1-[(2-chloro-3,4-dimethoxyphenyl)methyl]-1,2,3,4-tetrahydro-9H-pyrido[3,4-b]indole hydrochloride], the Kb is 3.98 nM.

Turning to `COc1ccc(CC2NCCc3c2[nH]c2ccc(Br)cc32)cc1OC` (centres unmarked) [Example 18, 6-bromo-1,2,3,4-tetrahydro-1-[(3,4-dimethoxyphenyl)methyl]-9H-pyrido[3,4b]indole], the Kb is 1.58 nM.
